From paper PMC5338256, “D-form KLKLLLLLKLK-NH2 peptide exerts higher antimicrobial properties than its L-form counterpart via an association with bacterial cell wall components” (Scientific Reports, 2017)
In brackets after ≈: the same amount, converted by molar mass. Non-standard residues stand in square brackets, D forms with d. Residues, ends and D or L forms follow the SMILES beside them.

Tests used:
S. aureus [1] = format: cell-based, Staphylococcus aureus (NBRC100910)
Protocol: (§1) S. aureus (NBRC100910), E. coli W3110 (NBRC12713), E. hirae (NBRC3181), C. albicans (NBRC1385), and S. Typhimurium 14028s (ATCC14028)[2] were used in this study. S. aureus, E. coli, and S. Typhimurium were grown at 37 °C with aeration in Muller-Hinton II medium (BD Biosciences). E. hirae was grown at 37 °C in LB medium (Nacalai Tesque, Inc.) containing 0.5% glucose (w/v). C. albicans was grown at room temperature with aeration in YM medium (BD Biosciences). All experiments were conducted using bacterial cells and C. albicans in the logarithmic-phase of growth.
(§2) Bacterial suspensions in Muller-Hinton II medium were adjusted to an optical density of 550 nm (OD550) = 0.0011. C. albicans suspensions in YM medium were adjusted to OD650 = 0.033. Peptides were serially diluted in 10 mM phosphate buffer (pH 6.0) containing 130 mM sodium chloride, 0.2% bovine serum albumin, and 2.56% dimethyl sulfoxide. The peptide solution (100 μl) was mixed with 100 μl of bacteria or C. albicans suspensions. Bacterial cultures were incubated for one day at 37 °C. C. albicans cultures were incubated for two days at room temperature. Cell growth was monitored optically and the MIC was determined.

E. coli [2] = format: cell-based, Escherichia coli W3110 (NBRC12713); settings: pH 6
Protocol: as §1, §2

C. albicans = format: cell-based, Candida albicans (NBRC1385)
Protocol: as §1, §2

E. coli [3] = test: Assay for antimicrobial activity (10 min exposure, CFU); format: cell-based, Escherichia coli W3110 (NBRC12713); settings: 10 min at 37 °C, triplicate plates
Protocol: as §1
(§3) Bacteria and C. albicans were suspended in growth medium. Peptides suspended in dimethyl sulfoxide were serially diluted in 10 mM phosphate buffer (pH 6.0) containing 130 mM sodium chloride, 0.2% bovine serum albumin as described previously. In order to examine the effects of bovine serum albumin on the assay, 10 mM phosphate buffer (pH 6.0) containing 130 mM sodium chloride, was used for the dilution of peptides. […] The inhibitory effects of the bacterial components were analyzed by incubating 450 μl of S. aureus suspension with 500 μl of peptide solution plus 50 μl of inhibitor samples at 37 °C for 10 min. […] After cultivation of the plates, colony forming units (CFU) in the peptide/bacteria suspension were calculated based on the average of triplicate plates.

S. Typhimurium = test: as above; format: cell-based, Salmonella enterica serovar Typhimurium 14028s; settings: 10 min at 37 °C, triplicate plates
Protocol: as §1, §3

S. aureus [4] = test: Assay for membrane permeability (ethidium influx); format: cell-based, Staphylococcus aureus; settings: 20 μg/ml peptide, fluorescence for 180 sec, 10 mM phosphate buffer pH 6.0, 130 mM NaCl, 0.2% BSA
Protocol: To examine membrane permeability, ethidium influx rates were examined as previously described. S. aureus suspension cultures were adjusted to an OD600 of 0.4 in 10 mM phosphate buffer (pH 6.0) containing 130 mM sodium chloride and 0.2% bovine serum albumin. Then, peptide in dimethyl sulfoxide (8 μl) or dimethyl sulfoxide alone (8 μl) was added to 2 ml of S. aureus suspensions. At 30 sec after the addition of peptide, ethidium bromide was added to a final concentration of 5 μg/ml, and fluorescence of the ethidium-nucleic acid complex was monitored using a RF-5300PC spectrofluorometer (Shimadzu). Excitation and emission wavelengths were 545 nm with 5 nm slits and 600 nm with 10 nm slits, respectively.

[5] = Calcein leakage from liposomes; format: biochemical; settings: 10 min at room temperature, pH 6.0, triplicate assays
Protocol: Liposomes were prepared as previously described with some modifications. S. aureus-mimetic liposomes[17][26] and mammalian-mimetic liposomes[27] were prepared by combining phospholipid mixtures (cardiolipin: L-α-phosphatidyl-DL-glycerol = 1:3 (mol/mol)) and 2-dioleoyl-sn-glycero-3-phosphocholine:1,2-dioleoyl-sn-glycero-3-phosphoethanolamine:Cholesterol = 4:2:3 (mol/mol/mol)), respectively. A 50 mM calcein solution was prepared by mixing 100 mg calcein with 3.1 ml of solution A (0.3 ml of 1 M Tris-HCl (pH 7.4), 0.9 ml of 5 M sodium hydroxide, and 13.8 ml of water). The liposomes were prepared by adding 1 ml of calcein solution to the dried lipid mixtures, followed by vortexing for 10 min at room temperature. The liposome solution (1 ml) was centrifuged at 3000 × g for 10 min, and the precipitate was resuspended in 1 ml of 20 mM Tris-HCl (pH 7.4) containing 150 mM sodium chloride. The centrifugation step was repeated two more times. Finally, the precipitate was suspended in 100 μl of 20 mM Tris-HCl (pH 7.4) containing 150 mM sodium chloride.
Liposome suspensions were prepared by diluting of 1 μl of liposomes into 40 ml of 10 mM phosphate buffer (pH6.0) containing 130 mM sodium chloride. Peptides were serially diluted in 10 mM phosphate buffer (pH 6.0) containing 130 mM sodium chloride and 1% dimethyl sulfoxide. […]

[6] = cited from earlier work

In the case of `CC(C)C[C@@H](NC(=O)[C@H](N)CCCCN)C(=O)N[C@H](CCCCN)C(=O)N[C@H](CC(C)C)C(=O)N[C@H](CC(C)C)C(=O)N[C@H](CC(C)C)C(=O)N[C@H](CC(C)C)C(=O)N[C@H](CC(C)C)C(=O)N[C@H](CCCCN)C(=O)N[C@H](CC(C)C)C(=O)N[C@H](CCCCN)C(N)=O` [D-form KLKLLLLLKLK-NH2] (H-[dK][dL][dK][dL][dL][dL][dL][dL][dK][dL][dK]-NH2; N-terminus assumed), the “fold by which the MIC of the D-form is lower than that of the L-form” value (S. aureus [1]; S. aureus) is reported as 16 fold, the MIC (S. aureus [1]; pH 6) is reported as 1 µg/mL (≈ 0.757 µM) and the MIC (E. coli [2]) is reported as 8 µg/mL (≈ 6.05 µM). The MIC (C. albicans) was 32 µg/mL (≈ 24.2 µM), the “antimicrobial activity (CFU), D-form compared with L-form” value (E. coli [3]) was “higher antimicrobial activity” and the “antimicrobial activity (CFU), D-form compared with L-form” value (S. Typhimurium) was “higher antimicrobial activity”. The “ethidium bromide influx rate” value (S. aureus [4]) was “higher”, the “calcein release from liposomes” value ([5]; S. aureus-mimetic liposomes (cardiolipin:phosphatidylglycerol 1:3)) was “released calcein” and the “calcein release from liposomes” value ([5]; mammalian-mimetic liposomes (phosphatidylcholine:phosphatidylethanolamine:cholesterol 4:2:3)) was “neither D-form nor L-form KLKLLLLLKLK-NH2 was able to release calcein”. For the same compound, the “persistence in bacterial culture medium, D-form compared with L-form” value [6] was “persist longer”.
